What follows are compounds tested against T1, HIV-integrase (Human immunodeficiency virus type 1 group M subtype B, UniProt P12497) (assay: HIV-Integrase Inhibition Activity (SPA strand transfer assay)). Conditions: recombinant integrase, SPA beads, P33 labeled target DNA; read-out: Activity (IC50 class, HIV-integrase inhibition).
T1 construct: Recombinant integrase (0.26 ng) was incubated with the beads
Assay type: biochemical
Procedure: HIV-Integrase InhibitionActivity. To evaluate in-vitro activity against HIV-integrase, 5 pmole of biotin labeled substrate DNA was bound to 100 μg of Streptavidin coated PVT SPA beads (Amersham Pharmacia Biotech). Recombinant integrase (0.26 ng) was incubated with the beads for 90 min at 37° C. Unbound enzyme was removed by washing the complex followed by addition of inhibitors and 0.1 fmol of P33 labeled target DNA. The reaction was stopped by adding EDTA to a final concentration of 10 mM. Samples were counted in TopCountNXT (Packard) and the CPM was used as a measure of integration. The reaction condition was as described in A. Engelman and R. Craigie, J. Virol. 69, 5908-5911 (1995). The sequences of substrate and target DNA were described in Nucleic Acid Research 22, 1121-1122 (1994). Activity equal to A refers to a compound having IC50=0.002 to 0.10 μM while B and C denote compounds having IC50=0.1 to 1.0 μM and IC50≧1.0 μM respectively.

Row | Compound | IC50 [nM]
1 | 2-Thiopheneacetic acid, 5- [[[(4,6,7,9-tetrahydro-3-hydroxy- 9,9-dimethyl-4-oxopyrimido[2,1- c][1,4]oxazin-2- yl)carbonyl]amino]methy]- [Example 55] | 100 to 1000
2 | CC1(C)OCCn2c1nc(C(=O)NCc1cc3ccccc3s1)c(O)c2=O [Example 1, Pyrimido[2,1-c][1,4]oxazine-2-carboxamide, N-(benzo[b]thien-2-ylmethyl)-4,6,7,9-tetrahydro-3-hydroxy-9,9-dimethyl-4-oxo-] | 2 to 100
3 | Cc1cc(CNC(=O)c2nc3n(c(=O)c2O)CCOC3(C)C)nn1C [Example 2, Pyrimido[2,1-c][1,4]oxazine-2-carboxamide, N-[(1,5-dimethyl-1H-pyrazol-3-yl)methyl]-4,6,7,9-tetrahydro-3-hydroxy-9,9-dimethyl-4-oxo-] | 100 to 1000
4 | CC1(C)OCCn2c1nc(C(=O)NCc1csc(-c3ccccc3)n1)c(O)c2=O [Example 3, Pyrimido[2,1-c][1,4]oxazine-2-carboxamide, 4,6,7,9-tetrahydro-3-hydroxy-9,9-dimethyl-4-oxo-N-[(2-phenyl-4-thiazolyl)methyl]-] | 100 to 1000
5 | CC1(C)OCCn2c1nc(C(=O)NCc1csc(-c3ccc(Cl)cc3)n1)c(O)c2=O [Example 4, Pyrimido[2,1-c][1,4]oxazine-2-carboxamide, N-[[2-(4-chlorophenyl)-4-thiazolyl]methyl]-4,6,7,9-tetrahydro-3-hydroxy-9,9-dimethyl-4-oxo-] | 100 to 1000
6 | CC1(C)OCCn2c1nc(C(=O)NCc1nccs1)c(O)c2=O [Example 5, Pyrimido[2,1-c][1,4]oxazine-2-carboxamide, 4,6,7,9-tetrahydro-3-hydroxy-9,9-dimethyl-4-oxo-N-(2-thiazolylmethyl)-] | ≥ 1000
7 | CC1(C)OCCn2c1nc(C(=O)NCc1cnn(-c3ccccc3)c1)c(O)c2=O [Example 6, Pyrimido[2,1-c][1,4]oxazine-2-carboxamide, 4,6,7,9-tetrahydro-3-hydroxy-9,9-dimethyl-4-oxo-N-[(1-phenyl-1H-pyrazol-4-yl)methyl]-] | ≥ 1000
8 | Cc1nc(CNC(=O)c2nc3n(c(=O)c2O)CCOC3(C)C)cs1 [Example 7, Pyrimido[2,1-c][1,4]oxazine-2-carboxamide, 4,6,7,9-tetrahydro-3-hydroxy-9,9-dimethyl-N-[(2-methyl-4-thiazolyl)methyl]-4-oxo-] | 100 to 1000
9 | Cc1cc(CNC(=O)c2nc3n(c(=O)c2O)CCOC3(C)C)n(C)n1 [Example 8, Pyrimido[2,1-c][1,4]oxazine-2-carboxamide, N-[(1,3-dimethyl-1H-pyrazol-5-yl)methyl]-4,6,7,9-tetrahydro-3-hydroxy-9,9-dimethyl-4-oxo-] | 100 to 1000
10 | Cc1ccc(CNC(=O)c2nc3n(c(=O)c2O)CCOC3(C)C)n1C [Example 9, Pyrimido[2,1-c][1,4]oxazine-2-carboxamide, N-[(1,5-dimethyl-1H-pyrrol-2-yl)methyl]-4,6,7,9-tetrahydro-3-hydroxy-9,9-dimethyl-4-oxo-] | 2 to 100
11 | Cc1cc(CNC(=O)c2nc3n(c(=O)c2O)CCOC3(C)C)nn1C(C)(C)C [Example 10, Pyrimido[2,1-c][1,4]oxazine-2-carboxamide, N-[[1-(1,1-dimethylethyl)-5-methyl-1H-pyrazol-3-yl]methyl]-4,6,7,9-tetrahydro-3-hydroxy-9,9-dimethyl-4-oxo-] | 2 to 100
12 | Cn1c(CNC(=O)c2nc3n(c(=O)c2O)CCOC3(C)C)cc2ccccc21 [Example 11, Pyrimido[2,1-c][1,4]oxazine-2-carboxamide, 4,6,7,9-tetrahydro-3-hydroxy-9,9-dimethyl-N-[(1-methyl-1H-indol-2-yl)methyl]-4-oxo-] | 2 to 100
13 | CNC(=O)c1ccoc1CNC(=O)c1nc2n(c(=O)c1O)CCOC2(C)C [Example 12, Pyrimido[2,1-c][1,4]oxazine-2-carboxamide, 4,6,7,9-tetrahydro-3-hydroxy-9,9-dimethyl-N-[[3-[(methylamino)carbonyl]-2-furanyl]methyl]-4-oxo-] | 2 to 100
14 | Cn1nc(CNC(=O)c2nc3n(c(=O)c2O)CCOC3(C)C)c2ccccc21 [Example 13, Pyrimido[2,1-c][1,4]oxazine-2-carboxamide, 4,6,7,9-tetrahydro-3-hydroxy-9,9-dimethyl-N-[(1-methyl-1H-indazol-3-yl)methyl]-4-oxo-] | 2 to 100
15 | CC1(C)OCCn2c1nc(C(=O)NCCc1c[nH]c3ccc(F)cc13)c(O)c2=O [Example 14, Pyrimido[2,1-c][1,4]oxazine-2-carboxamide, N-[2-(5-fluoro-1H-indol-3-yl)ethyl]-4,6,7,9-tetrahydro-3-hydroxy-9,9-dimethyl-4-oxo-] | 2 to 100
16 | CC1(C)OCCn2c1nc(C(=O)NCc1cn3ccccc3n1)c(O)c2=O [Example 15, Pyrimido[2,1-c][1,4]oxazine-2-carboxamide, 4,6,7,9-tetrahydro-3-hydroxy-N-(imidazo[1,2-a]pyridin-2-ylmethyl)-9,9-dimethyl-4-oxo-] | 2 to 100
17 | CNC(=O)c1ccc(CNC(=O)c2nc3n(c(=O)c2O)CCOC3(C)C)o1 [Example 16, 3-Hydroxy-9,9-dimethyl-N-((5-(methylcarbamoyl)-2-furyl)methyl)-4-oxo-4,6,7,9-tetrahydropyrimido[2,1-c][1,4]oxazine-2-carboxamider] | 100 to 1000
18 | CC1(C)OCCn2c1nc(C(=O)NCc1ccc(C(=O)N3CCOCC3)o1)c(O)c2=O [Example 17, Pyrimido[2,1-c][1,4]oxazine-2-carboxamide, 4,6,7,9-tetrahydro-3-hydroxy-9,9-dimethyl-N-[[5-(4-morpholinylcarbonyl)-2-furanyl]methyl]-4-oxo-] | ≥ 1000
19 | Cc1cc(CNC(=O)c2nc3n(c(=O)c2O)CCOC3(C)C)nn1C(F)F [Example 18, Pyrimido[2,1-c][1,4]oxazine-2-carboxamide, N-[[1-(difluoromethyl)-5-methyl-1H-pyrazol-3-yl]methyl]-4,6,7,9-tetrahydro-3-hydroxy-9,9-dimethyl-4-oxo-] | 2 to 100
20 | Cc1cc(CNC(=O)c2nc3n(c(=O)c2O)CCOC3(C)C)nn1C(C)C [Example 19, Pyrimido[2,1-c][1,4]oxazine-2-carboxamide, 4,6,7,9-tetrahydro-3-hydroxy-9,9-dimethyl-N-[[5-methyl-1-(1-methylethyl)-1H-pyrazol-3-yl]methyl]-4-oxo-] | 2 to 100
21 | Cc1cc(CNC(=O)c2nc3n(c(=O)c2O)CCOC3(C)C)nn1CCF [Example 20, Pyrimido[2,1-c][1,4]oxazine-2-carboxamide, N-[[1-(2-fluoroethyl)-5-methyl-1H-pyrazol-3-yl]methyl]-4,6,7,9-tetrahydro-3-hydroxy-9,9-dimethyl-4-oxo-] | 2 to 100
22 | Cc1cc(C)n2nc(CNC(=O)c3nc4n(c(=O)c3O)CCOC4(C)C)nc2n1 [Example 21, Pyrimido[2,1-c][1,4]oxazine-2-carboxamide, N-[(5,7-dimethyl[1,2,4]triazolo[1,5-a]pyrimidin-2-yl)methyl]-4,6,7,9-tetrahydro-3-hydroxy-9,9-dimethyl-4-oxo-] | ≥ 1000
23 | CC1(C)OCCn2c1nc(C(=O)NCc1nc3ccccc3[nH]1)c(O)c2=O [Example 22, Pyrimido[2,1-c][1,4]oxazine-2-carboxamide, N-(1H-benzimidazol-2-ylmethyl)-4,6,7,9-tetrahydro-3-hydroxy-9,9-dimethyl-4-oxo-] | ≥ 1000
24 | Cc1ncsc1CNC(=O)c1nc2n(c(=O)c1O)CCOC2(C)C [Example 23, Pyrimido[2,1-c][1,4]oxazine-2-carboxamide, 4,6,7,9-tetrahydro-3-hydroxy-9,9-dimethyl-N-[(4-methyl-5-thiazolyl)methyl]-4-oxo-] | ≥ 1000
25 | Cc1nc(C)c(CNC(=O)c2nc3n(c(=O)c2O)CCOC3(C)C)s1 [Example 24, Pyrimido[2,1-c][1,4]oxazine-2-carboxamide, N-[(2,4-dimethyl-5-thiazolyl)methyl]-4,6,7,9-tetrahydro-3-hydroxy-9,9-dimethyl-4-oxo-] | 2 to 100
26 | Cn1cc(CNC(=O)c2nc3n(c(=O)c2O)CCOC3(C)C)nn1 [Example 25, Pyrimido[2,1-c][1,4]oxazine-2-carboxamide, 4,6,7,9-tetrahydro-3-hydroxy-9,9-dimethyl-N-[(1-methyl-1H-1,2,3-triazol-4-yl)methyl]-4-oxo-] | ≥ 1000
27 | Cn1cc(CN(Cc2cn(C)nn2)C(=O)c2nc3n(c(=O)c2O)CCOC3(C)C)nn1 [Example 26, Pyrimido[2,1-c][1,4]oxazine-2-carboxamide, 4,6,7,9-tetrahydro-3-hydroxy-9,9-dimethyl-N,N-bis[(1-methyl-1H-1,2,3-triazol-4-yl)methyl]-4-oxo-] | ≥ 1000
28 | CC1(C)OCCn2c1nc(C(=O)NCc1ccc(Cc3ccccc3)o1)c(O)c2=O [Example 27, Pyrimido[2,1-c][1,4]oxazine-2-carboxamide, 4,6,7,9-tetrahydro-3-hydroxy-9,9-dimethyl-4-oxo-N-[[5-(phenylmethyl)-2-furanyl]methyl]] | 2 to 100
29 | CC1(C)OCCn2c1nc(C(=O)NCc1cccs1)c(O)c2=O [Example 28, Pyrimido[2,1-c][1,4]oxazine-2-carboxamide, 4,6,7,9-tetrahydro-3-hydroxy-9,9-dimethyl-4-oxo-N-(2-thienylmethyl)-] | 2 to 100
30 | Cc1ccc(CNC(=O)c2nc3n(c(=O)c2O)CCOC3(C)C)s1 [Example 29, Pyrimido[2,1-c][1,4]oxazine-2-carboxamide, 4,6,7,9-tetrahydro-3-hydroxy-9,9-dimethyl-N-[(5-methyl-2-thienyl)methyl]-4-oxo-] | 2 to 100
